Test systems include A498; A549; BT-549; COLO 205; HCT-15; HOP-62; HOP-92; IGROV-1; K562; KM12; M14; MCF7; NCI-H23; NCI-H522; OVCAR-4; RPMI-8226; SK-MEL-28; SK-OV-3; T47D; TK-10.
What all share (experiment): inhibition of tumour cell growth, NCI panel, 48 h

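How tested: cells in 96-well plates exposed to compound for 48 hours at five concentrations. GI50 is the concentration that inhibits growth by half.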 The source made the active and inactive calls. Cut-off read from the data, not from the text of the source: active = GI50 up to about 1.1 µM and inactive = higher. Bounds are passed on as bounds.

As for `Cc1cc(S(=O)(=O)Nc2nc(N)nc(N(C)C)n2)c(S)cc1Cl`, the GI50 in the assay on A498 was > 10 µM (inactive); with A549 it was > 10 µM (inactive); with BT-549, > 10 µM (inactive); in the assay with COLO 205, > 10 µM (inactive); in the assay on HCT-15 it was > 10 µM; with HOP-62 it was > 10 µM (inactive). Further, the GI50 with HOP-92, in the assay with IGROV-1, in the assay on K562, in the assay on KM12, in the assay on M14 and with MCF7 was > 10 µM (inactive) throughout. Further, the GI50 in the assay on NCI-H23, in the assay on NCI-H522, with OVCAR-4, with RPMI-8226, with SK-MEL-28 and in the assay on SK-OV-3 was > 10 µM (inactive) in each case. Also, the GI50 in the assay on T47D and with TK-10 was > 10 µM (inactive) each time.

Consider `CC(=O)Nc1ccc2c(c1)/C(=N/c1ccc(C(=O)O)cc1)c1ccccc1-2`, for which the GI50 is > 100 µM (inactive) in the assay on A498; > 100 µM (inactive) in the assay with A549; 47.1 µM (inactive) in the assay with BT-549; 57.3 µM (inactive) in the assay with COLO 205; 43.9 µM in the assay on HCT-15; 86.1 µM (inactive) with HOP-62. Moreover, the GI50 is 37.9 µM (inactive) in the assay with HOP-92; 46.3 µM (inactive) in the assay on IGROV-1; 63.1 µM (inactive) in the assay with K562; 51.4 µM (inactive) in the assay with KM12; 99.1 µM (inactive) with M14; 2.42 µM (inactive) with MCF7. The GI50 in the assay on NCI-H23 was > 100 µM (inactive); in the assay with NCI-H522 it was 70 µM (inactive); in the assay with OVCAR-4, 41 µM (inactive); in the assay on RPMI-8226, 36 µM (inactive); in the assay with SK-MEL-28, > 100 µM (inactive); in the assay on SK-OV-3 it was > 100 µM (inactive). Besides, the GI50 in the assay on T47D is 28 µM (inactive); in the assay on TK-10 it was > 100 µM (inactive).

As to `COc1cc(/C=N/N=C2NCCCN2)ccc1O`, the GI50 in the assay with A498 was > 100 µM (inactive); in the assay with A549 it was > 100 µM (inactive); with BT-549 it was > 100 µM (inactive); in the assay on COLO 205, > 100 µM (inactive); in the assay on HCT-15, > 100 µM; with HOP-62, > 100 µM (inactive). Moreover, the GI50 in the assay with HOP-92, with IGROV-1, with K562, in the assay on KM12, in the assay on M14 and with MCF7 was > 100 µM (inactive) each time. Further, the GI50 in the assay with NCI-H23, in the assay with NCI-H522, in the assay on OVCAR-4, in the assay on RPMI-8226, in the assay on SK-MEL-28 and in the assay on SK-OV-3 was > 100 µM (inactive) throughout. Besides, the GI50 in the assay on T47D and with TK-10 was > 100 µM (inactive) each time.

`O=C(CC(Cl)(Cl)C(Cl)(Cl)Cl)c1ccccc1`: the GI50 is 18.4 µM (inactive) in the assay with A498; 17.8 µM (inactive) in the assay with A549; 10.7 µM (inactive) with BT-549; 3.24 µM (inactive) in the assay on COLO 205; 2.17 µM in the assay on HCT-15; 4.21 µM (inactive) with HOP-62. Also, the GI50 in the assay with HOP-92 was 19.9 µM (inactive); with IGROV-1, 4.84 µM (inactive); with K562, 2.09 µM (inactive); in the assay with KM12, 4.18 µM (inactive); in the assay on M14, 2.62 µM (inactive); with MCF7, 3.65 µM (inactive). The GI50 was 3.88 µM (inactive) with NCI-H23; 2.65 µM (inactive) in the assay on NCI-H522; 2.22 µM (inactive) with OVCAR-4; 3.45 µM (inactive) in the assay on RPMI-8226; 2.2 µM (inactive) with SK-MEL-28; 18.4 µM (inactive) with SK-OV-3. The GI50 in the assay with T47D was 2.73 µM (inactive); in the assay with TK-10, 6.1 µM (inactive).

`C#CCn1c2c(c3ccccc3c1=O)C(=O)c1ccccc1-2`: the GI50 with A498 was 22.7 µM (inactive); with A549, 13.6 µM (inactive); in the assay on BT-549 it was 22.1 µM (inactive); in the assay on COLO 205, 22.4 µM (inactive); in the assay on HCT-15, 22.2 µM; in the assay on HOP-62 it was 11.9 µM (inactive). The GI50 in the assay with HOP-92 is 29.9 µM (inactive); in the assay on IGROV-1, 15.7 µM (inactive); with K562, 19 µM (inactive); in the assay with KM12, 10.1 µM (inactive); with M14, 42.8 µM (inactive); with MCF7 it was 9.06 µM (inactive). The GI50 with NCI-H23 was 11.4 µM (inactive); in the assay on NCI-H522 it was 10.7 µM (inactive); with OVCAR-4 it was 11.4 µM (inactive); with RPMI-8226 it was 13 µM (inactive); in the assay with SK-MEL-28, 26.6 µM (inactive); with SK-OV-3, 27.4 µM (inactive). Also, the GI50 with T47D was 15.8 µM (inactive); in the assay on TK-10, 19.5 µM (inactive).

In the case of `CC(C)(C)c1cc(/C=C(\C#N)C(=O)NCCO)cc(C(C)(C)C)c1O`, the GI50 in the assay with A498 was 20.3 µM (inactive); in the assay on A549, 27.4 µM (inactive); in the assay on BT-549 it was 25.1 µM (inactive); in the assay on COLO 205, 20.5 µM (inactive); with HCT-15, 20.7 µM; with HOP-62, 21.2 µM (inactive). The GI50 with HOP-92 was 45.7 µM (inactive); in the assay on IGROV-1, 40.7 µM (inactive); with K562, 24 µM (inactive); in the assay with KM12 it was 21.5 µM (inactive); with M14, 17.1 µM (inactive); in the assay on MCF7 it was 26.5 µM (inactive). Besides, the GI50 in the assay on NCI-H23 is 27.9 µM (inactive); in the assay with NCI-H522, 16.5 µM (inactive); in the assay with OVCAR-4, 17.8 µM (inactive); with RPMI-8226, 12.3 µM (inactive); in the assay with SK-MEL-28, 21.6 µM (inactive); in the assay with SK-OV-3 it was 20.7 µM (inactive). The GI50 is 20.1 µM (inactive) in the assay with T47D and 22.3 µM (inactive) in the assay on TK-10.

Consider `Cc1coc2c1CC1OC1(C)CCC1OC1(C)C2` (stereo not given), for which the GI50 with A498 was > 100 µM (inactive); in the assay with A549 it was > 100 µM (inactive); in the assay with BT-549 it was > 100 µM (inactive); in the assay on COLO 205 it was > 100 µM (inactive); in the assay with HCT-15, > 100 µM; with HOP-62, > 100 µM (inactive). In addition, the GI50 in the assay on HOP-92, with IGROV-1, in the assay with K562, with KM12, with M14 and with MCF7 was > 100 µM (inactive) throughout. Moreover, the GI50 in the assay on NCI-H23, with NCI-H522, in the assay with OVCAR-4, in the assay with RPMI-8226, in the assay with SK-MEL-28 and in the assay on SK-OV-3 was > 100 µM (inactive) throughout. In addition, the GI50 in the assay on T47D and in the assay on TK-10 was > 100 µM (inactive) in each case.

In the case of `CC(CC(=O)O)C(C(=O)O)C(=O)O` (stereo not given), the GI50 is > 100 µM (inactive) in the assay with A498; > 100 µM (inactive) in the assay on A549; > 100 µM (inactive) in the assay with BT-549; > 100 µM (inactive) in the assay with COLO 205; > 100 µM in the assay on HCT-15; > 100 µM (inactive) in the assay on HOP-62. In addition, the GI50 in the assay on HOP-92, in the assay on IGROV-1, in the assay with K562, with KM12, in the assay with M14 and with MCF7 was > 100 µM (inactive) throughout. The GI50 in the assay on NCI-H23, with NCI-H522, with OVCAR-4, in the assay on RPMI-8226, in the assay with SK-MEL-28 and in the assay with SK-OV-3 was > 100 µM (inactive) throughout. Moreover, the GI50 in the assay with T47D and in the assay on TK-10 was > 100 µM (inactive) each time.

As for `Cc1sc2ncnc(NCCc3ccccc3)c2c1C`, the GI50 with A498 is 11.1 µM (inactive); in the assay on A549, 14.7 µM (inactive); in the assay on BT-549 it was 15.2 µM (inactive); with COLO 205, 11 µM (inactive); in the assay on HCT-15, 21.5 µM; in the assay on HOP-62 it was 12.8 µM (inactive). The GI50 with HOP-92 is 0.94 µM (active); with IGROV-1, 12.7 µM (inactive); with K562, 2 µM (inactive); in the assay with KM12 it was 13.4 µM (inactive); in the assay on M14, 18.1 µM (inactive); in the assay on MCF7, 12.5 µM (inactive). Further, the GI50 in the assay on NCI-H23 is 10.9 µM (inactive); in the assay with NCI-H522 it was 8.59 µM (inactive); with OVCAR-4 it was 13.6 µM (inactive); in the assay on RPMI-8226, 10.2 µM (inactive); in the assay on SK-MEL-28, 17.8 µM (inactive); in the assay on SK-OV-3 it was 22.6 µM (inactive). The GI50 with T47D was 2.29 µM (inactive); with TK-10, 11.4 µM (inactive).

For the compound `CCCCCCNC(=O)CCC(NC(=O)c1ccc(N(C)Cc2cnc3nc(N)nc(N)c3n2)cc1)C(=O)NCCCCCC` (stereo not given), the GI50 in the assay with A498 was > 100 µM (inactive); in the assay on A549, > 100 µM (inactive); in the assay on BT-549 it was > 100 µM (inactive); in the assay with COLO 205 it was > 100 µM (inactive); in the assay with HCT-15 it was > 100 µM; in the assay on HOP-62 it was > 100 µM (inactive). For the same compound, the GI50 is 98.2 µM (inactive) in the assay on HOP-92; 16.2 µM (inactive) in the assay with IGROV-1; 2.52 µM (inactive) in the assay on K562; > 100 µM (inactive) in the assay on KM12; 73.8 µM (inactive) in the assay on M14; 18.3 µM (inactive) with MCF7. Further, the GI50 in the assay on NCI-H23 is > 100 µM (inactive); in the assay on NCI-H522, 63 µM (inactive); in the assay with OVCAR-4, > 100 µM (inactive); with RPMI-8226, 37.8 µM (inactive); with SK-MEL-28, > 100 µM (inactive); in the assay on SK-OV-3, 17.7 µM (inactive). For the same compound, the GI50 with T47D and with TK-10 was > 100 µM (inactive) each time.
